The nature of one data set: in vitro. To be noted: human, uninfected MT-4 cells.
The next data set has as its system HIV-1 (IIIB). The experiment in a line: microbe, parasite or virus in culture. The data set is classed as cell-based. The conditions noted are these: Human immunodeficiency virus 1, IIIB, MT4, 120 h, HIV-1 (IIIB) in MT-4 cells, 5 days incubation, Cell Titer Glo; read-out: MT4 EC50.
In a further data set the test system is pLAI reporter virus. The experiment in a line: microbe, parasite or virus in culture. The data set is classed as cell-based, HIV. To be noted: Human immunodeficiency virus 1, MT4, 72 h.

The structures appear in SMILES notation. Like-named read-outs stand apart in the source and are kept apart here. A value given as a limit tells only on which side of the number the result lay.

In “in vitro”, `C[C@H]1CC[C@]2(CC(CF)=NO2)[C@H]2CN1C(=O)c1c(O)c(=O)c(C(=O)NCc3ncc(F)c(Cl)c3F)cn12` [Example 66, (3′S,5S,7′R)—N-((4-chloro-3,5-difluoropyridin-2-yl)methyl)-3-(fluoromethyl)-12′-hydroxy-3′-methyl-1′,11′-dioxo-1′,4′,5′,11′-tetrahydro-3′H,4H,7′H-spiro[isoxazole-5,6′-[2,7]methanopyrido[1,2-a][1,4]diazonine]-10′-carboxamide] displayed a CC50 at 5 days of 30100 nM. Besides, the EC50 in the data set on HIV-1 (IIIB) worked out at 3.9 nM; with pLAI reporter virus (read-out: RLUC 50% HS EC50), 561 nM; in the data set with pLAI reporter virus (read-out: RLUC CCM EC50) it was 0.8 nM.

Turning to `CC1=NO[C@@]2(CC[C@H](CF)N3C[C@H]2n2cc(C(=O)NCc4ccc(F)cc4F)c(=O)c(O)c2C3=O)C1` [Example 155, (3′R,5S,7′R)—N-(2,4-difluorobenzyl)-3′-(fluoromethyl)-12′-hydroxy-3-methyl-1′,11′-dioxo-1′,4′,5′,11′-tetrahydro-3′H,4H,7′H-spiro[isoxazole-5,6′-[2,7]methanopyrido[1,2-a][1,4]diazonine]-10′-carboxamide], in “in vitro”, the CC50 at 5 days was found to be 28400 nM. The EC50 is 1 nM in the data set with HIV-1 (IIIB), 59.8 nM in the data set on pLAI reporter virus (read-out: RLUC 50% HS EC50) and 0.5 nM in the data set on pLAI reporter virus (read-out: RLUC CCM EC50).

The compound `COC1=NO[C@@]2(CC[C@H](C)N3C[C@H]2n2cc(C(=O)NCc4c(F)cc(F)cc4F)c(=O)c(O)c2C3=O)[C@H]1C` [Example 85, (3′S,4R,5S,7′R)-12′-hydroxy-3-methoxy-3′,4-dimethyl-1′,11′-dioxo-N-(2,4,6-trifluorobenzyl)-1′,4′,5′,11′-tetrahydro-3′H,4H,7′H-spiro[isoxazole-5,6′-[2,7]methanopyrido[1,2-a][1,4]diazonine]-10′-carboxamide] yielded a CC50 at 5 days in “in vitro” of 29600 nM. Moreover, the EC50 worked out at 1 nM in the data set with HIV-1 (IIIB), 28.7 nM in the data set with pLAI reporter virus (read-out: RLUC 50% HS EC50) and 0.2 nM in the data set on pLAI reporter virus (read-out: RLUC CCM EC50).

`C[C@H]1CC[C@]2(CC(n3cccn3)=NO2)[C@H]2CN1C(=O)c1c(O)c(=O)c(C(=O)NCc3c(F)cc(F)cc3F)cn12` [Example 77, (3′S,5S,7′R)-12′-hydroxy-3′-methyl-1′,11′-dioxo-3-(1H-pyrazol-1-yl)-N-(2,4,6-trifluorobenzyl)-1′,4′,5′,11′-tetrahydro-3′H,4H,7′H-spiro[isoxazole-5,6′-[2,7]methanopyrido[1,2-a][1,4]diazonine]-10′-carboxamide] gave a CC50 at 5 days in “in vitro” of 1480 nM. Besides, the EC50 in the data set on HIV-1 (IIIB) worked out at 2.9 nM; in the data set on pLAI reporter virus (read-out: RLUC 50% HS EC50) it was 17.7 nM; with pLAI reporter virus (read-out: RLUC CCM EC50), 0.5 nM.

In turn, `CC1=NO[C@@]2(CC[C@H](C)N3C[C@H]2n2cc(C(=O)NCc4c(F)cc(F)cc4F)c(=O)c(O)c2C3=O)[C@@H]1F` [Example 33, (3′S,4R,5R,7′R)-4-fluoro-12′-hydroxy-3,3′-dimethyl-1′,11′-dioxo-N-(2,4,6-trifluorobenzyl)-1′,4′,5′,11′-tetrahydro-3′H,4H,7′H-spiro[isoxazole-5,6′-[2,7]methanopyrido[1,2-a][1,4]diazonine]-10′-carboxamide] yielded a CC50 at 5 days in “in vitro” of 14100 nM. Further, the EC50 was 0.7 nM with HIV-1 (IIIB), 342 nM in the data set on pLAI reporter virus (read-out: RLUC 50% HS EC50) and 0.4 nM with pLAI reporter virus (read-out: RLUC CCM EC50).

Consider `C[C@H]1CC[C@]2(CC(c3ccccn3)=NO2)[C@H]2CN1C(=O)c1c(O)c(=O)c(C(=O)NCc3ccc(F)cc3F)cn12` [Example 13, (3′S,5S,7′R)—N-(2,4-difluorobenzyl)-12′-hydroxy-3′-methyl-1′,11′-dioxo-3-(pyridin-2-yl)-1′,4′,5′,11′-tetrahydro-3′H,4H,7′H-spiro[isoxazole-5,6′-[2,7]methanopyrido[1,2-a][1,4]diazonine]-10′-carboxamide], for which the CC50 at 5 days in the data set “in vitro” was at least 50000 nM. Besides, the EC50 in the data set with HIV-1 (IIIB) came out at 4.3 nM; in the data set on pLAI reporter virus (read-out: RLUC 50% HS EC50) it was 2.1 nM; in the data set with pLAI reporter virus (read-out: RLUC CCM EC50), 1.5 nM.

In the data set “in vitro”, `COC1=NO[C@@]2(CC[C@H](CF)N3C[C@H]2n2cc(C(=O)NCc4ccc(F)cc4F)c(=O)c(O)c2C3=O)C1` [Example 100, (3′R,5S,7′R)—N-(2,4-difluorobenzyl)-3′-(fluoromethyl)-12′-hydroxy-3-methoxy-1′,11′-dioxo-1′,4′,5′,11′-tetrahydro-3′H,4H,7′H-spiro[isoxazole-5,6′-[2,7]methanopyrido[1,2-a][1,4]diazonine]-10′-carboxamide] gave a CC50 at 5 days of at least 50000 nM. The EC50 is 1.5 nM in the data set with HIV-1 (IIIB), 13.5 nM in the data set on pLAI reporter virus (read-out: RLUC 50% HS EC50) and 0.3 nM in the data set with pLAI reporter virus (read-out: RLUC CCM EC50).

Consider `CC1=NO[C@@]2(CC[C@H](C)N3C[C@H]2n2cc(C(=O)NCc4c(F)cc(F)cc4F)c(=O)c(O)c2C3=O)O1` [Example 92, (3′S,5R,7′R)-12′-hydroxy-3,3′-dimethyl-1′,11′-dioxo-N-(2,4,6-trifluorobenzyl)-1′,4′,5′,11′-tetrahydro-3′H,7′H-spiro[[1,4,2]dioxazole-5,6′-[2,7]methanopyrido[1,2-a][1,4]diazonine]-10′-carboxamide], for which the CC50 at 5 days in “in vitro” came to 24900 nM. For the same compound, the EC50 worked out at 0.7 nM with HIV-1 (IIIB), 409 nM in the data set with pLAI reporter virus (read-out: RLUC 50% HS EC50) and 0.2 nM with pLAI reporter virus (read-out: RLUC CCM EC50).

In turn, `C[C@H]1CC[C@@]2(CN(C)C(=O)O2)[C@H]2CN1C(=O)c1c(O)c(=O)c(C(=O)NCc3c(F)cc(F)cc3F)cn12` [Example 60, (3′S,5R,7′R)-12′-hydroxy-3,3′-dimethyl-1′,2,11′-trioxo-N-(2,4,6-trifluorobenzyl)-1′,4′,5′,11′-tetrahydro-3′H,7′H-spiro[oxazolidine-5,6′-[2,7]methanopyrido[1,2-a][1,4]diazonine]-10′-carboxamide] gave a CC50 at 5 days in the data set “in vitro” of at least 50000 nM. For the same compound, the EC50 in the data set with HIV-1 (IIIB) stood at 78.6 nM; with pLAI reporter virus (read-out: RLUC 50% HS EC50) it was 31.2 nM; in the data set with pLAI reporter virus (read-out: RLUC CCM EC50) it was 25.2 nM.

As to `CC(C)C1=NO[C@@]2(CC[C@H](C)N3C[C@H]2n2cc(C(=O)NCc4ccc(F)cc4F)c(=O)c(O)c2C3=O)C1` [Example 7, (3′S,5S,7′R)—N-(2,4-difluorobenzyl)-12′-hydroxy-3-isopropyl-3′-methyl-1′,11′-dioxo-1′,4′,5′,11′-tetrahydro-3′H,4H,7′H-spiro[isoxazole-5,6′-[2,7]methanopyrido[1,2-a][1,4]diazonine]-10′-carboxamide], the CC50 at 5 days in “in vitro” amounted to 38200 nM. Moreover, the EC50 with HIV-1 (IIIB) was determined as 1.9 nM; in the data set on pLAI reporter virus (read-out: RLUC 50% HS EC50), 1.6 nM; with pLAI reporter virus (read-out: RLUC CCM EC50), 0.5 nM.

On to `C[C@H]1CC[C@@]2(OC[C@@H](Cc3ccccc3)O2)[C@H]2CN1C(=O)c1c(O)c(=O)c(C(=O)NCc3c(F)cc(F)cc3F)cn12` (single isomer, unassigned) [169 (peak 1)], for which the midpoint of cytotoxicity in “in vitro”, the CC50 at 5 days, lay at 39000 nM. Besides, the values for the EC50 with HIV-1 (IIIB), in the data set with pLAI reporter virus (read-out: RLUC 50% HS EC50) and in the data set with pLAI reporter virus (read-out: RLUC CCM EC50) were 4.9 nM, 10 nM and 1.4 nM, respectively.

For `C[C@H]1CC[C@]2(CC(C#CC(C)(C)O)=NO2)[C@H]2CN1C(=O)c1c(O)c(=O)c(C(=O)NCc3c(F)cc(F)cc3F)cn12` [Example 81, (3′S,5S,7′R)-12′-hydroxy-3-(3-hydroxy-3-methylbut-1-yn-1-yl)-3′-methyl-1′,11′-dioxo-N-(2,4,6-trifluorobenzyl)-1′,4′,5′,11′-tetrahydro-3′H,4H,7′H-spiro[isoxazole-5,6′-[2,7]methanopyrido[1,2-a][1,4]diazonine]-10′-carboxamide], in “in vitro”, the CC50 at 5 days stood at 19600 nM. For the same compound, the results for the EC50 in the data set with HIV-1 (IIIB), in the data set with pLAI reporter virus (read-out: RLUC 50% HS EC50) and with pLAI reporter virus (read-out: RLUC CCM EC50) were 2.1 nM, 0.6 nM and 0.5 nM, respectively.

Consider `CC1=NO[C@@]2(CC[C@H](C)N3C[C@H]2n2cc(C(=O)NCc4c(F)cc(F)cc4F)c(=O)c(O)c2C3=O)[C@H]1F` [Example 32, (3′S,4S,5R,7′R)-4-fluoro-12′-hydroxy-3,3′-dimethyl-1′,11′-dioxo-N-(2,4,6-trifluorobenzyl)-1′,4′,5′,11′-tetrahydro-3′H,4H,7′H-spiro[isoxazole-5,6′-[2,7]methanopyrido[1,2-a][1,4]diazonine]-10′-carboxamide], for which half-maximal cytotoxicity in the data set “in vitro” (CC50 at 5 days) was put at 21200 nM. For the same compound, the EC50 with HIV-1 (IIIB) turned out to be 1.5 nM; in the data set with pLAI reporter virus (read-out: RLUC 50% HS EC50) it was 261 nM; in the data set on pLAI reporter virus (read-out: RLUC CCM EC50), 0.4 nM.

For `C[C@H]1CC[C@@]2(ON=C3OCCC[C@@H]32)[C@H]2CN1C(=O)c1c(O)c(=O)c(C(=O)NCc3c(F)cc(F)cc3F)cn12` [Example 50, (3S,3a R,3′S,7′R)-12′-hydroxy-3′-methyl-1′,11′-dioxo-N-(2,4,6-trifluorobenzyl)-1′,3a,4,4′,5,5′,6,11′-octahydro-3′H,7′H-spiro[pyrano[2,3-c]isoxazole-3,6′-[2,7]methanopyrido[1,2-a][1,4]diazonine]-10′-carboxamide], the CC50 at 5 days in “in vitro” was at least 50000 nM. Moreover, the EC50 in the data set with HIV-1 (IIIB) was determined as 0.8 nM; with pLAI reporter virus (read-out: RLUC 50% HS EC50) it was 10.3 nM; in the data set with pLAI reporter virus (read-out: RLUC CCM EC50) it was 0.5 nM.

For the compound `C[C@H]1CC[C@]2(CC(=O)N(Cc3ccc(Cl)cc3)O2)[C@H]2CN1C(=O)c1c(O)c(=O)c(C(=O)NCc3c(F)cc(F)cc3F)cn12` [Example 109, (3′S,5S,7′R)-2-(4-chlorobenzyl)-12′-hydroxy-3′-methyl-1′,3,11′-trioxo-N-(2,4,6-trifluorobenzyl)-1′,4′,5′,11′-tetrahydro-3′H,7′H-spiro[isoxazolidine-5,6′-[2,7]methanopyrido[1,2-a][1,4]diazonine]-10′-carboxamide], the CC50 at 5 days in the data set “in vitro” was 2890 nM. The EC50 in the data set on HIV-1 (IIIB) is 1.6 nM; in the data set with pLAI reporter virus (read-out: RLUC 50% HS EC50) it was 3.9 nM; in the data set with pLAI reporter virus (read-out: RLUC CCM EC50), 0.3 nM.

Consider `CC1=NO[C@@]2(CC[C@H](C)N3C[C@H]2n2cc(C(=O)NCc4ccc(F)cc4F)c(=O)c(O)c2C3=O)[C@H]1F` (single isomer, unassigned) [Example 27 (peak 1)], for which half-maximal cytotoxicity in the data set “in vitro” (CC50 at 5 days) was put at 33100 nM. Moreover, the EC50 with HIV-1 (IIIB) was determined as 1.3 nM; in the data set with pLAI reporter virus (read-out: RLUC 50% HS EC50), 175 nM; in the data set on pLAI reporter virus (read-out: RLUC CCM EC50), 0.2 nM.

Take `COC1=NO[C@@]2(CCCN3C[C@H]2n2cc(C(=O)NCc4c(F)cc(F)cc4F)c(=O)c(O)c2C3=O)C1` [Example 96, (5S,7′R)-12′-hydroxy-3-methoxy-1′,11′-dioxo-N-(2,4,6-trifluorobenzyl)-1′,4′,5′,11′-tetrahydro-3′H,4H,7′H-spiro[isoxazole-5,6′-[2,7]methanopyrido[1,2-a][1,4]diazonine]-10′-carboxamide]: in “in vitro”, half-maximal cytotoxicity (CC50 at 5 days) was put at 31400 nM. The concentration for a half-maximal effect (EC50) in the data set on HIV-1 (IIIB) was 1.1 nM; in the data set with pLAI reporter virus (read-out: RLUC 50% HS EC50) it was 1.2 nM; with pLAI reporter virus (read-out: RLUC CCM EC50), 0.2 nM.

The values above are taken from US20250115620A1, “BRIDGED TRICYCLIC CARBAMOYLPYRIDONE COMPOUNDS AND USES THEREOF” (Gilead Sciences, Inc., priority 2022, published 2025).
